The results in this text go back to ChEMBL document CHEMBL1817626, “The structure-activity relationship of urea derivatives as anti-tuberculosis agents” (Bioorg Med Chem, 2011).

Values after ≈ are worked out from the molar mass of the structure shown. Active and inactive are the calls of the source. The calls are words filed in the database; no cut-off is given here.

Assay [1] concerns Enterococcus faecium. Kind of assay: Antibacterial activity against Enterococcus faecium. Format: functional.
For assay [2], the system named is Pseudomonas aeruginosa. As to the kind of experiment: Antibacterial activity against Pseudomonas aeruginosa. Format: functional.
Assay [3] has as its system Staphylococcus aureus. Kind of assay: Antibacterial activity against Staphylococcus aureus. Format: functional.
The subject of assay [4] is Mycolicibacterium smegmatis. Kind of assay: microbe, parasite or virus in culture. Conditions: str. MC2 155, 168 h.
The target in assay [5] is T1, Epoxide hydrolase B (Mycobacterium tuberculosis) (UniProt P95276).
T1 sequence (whole entry): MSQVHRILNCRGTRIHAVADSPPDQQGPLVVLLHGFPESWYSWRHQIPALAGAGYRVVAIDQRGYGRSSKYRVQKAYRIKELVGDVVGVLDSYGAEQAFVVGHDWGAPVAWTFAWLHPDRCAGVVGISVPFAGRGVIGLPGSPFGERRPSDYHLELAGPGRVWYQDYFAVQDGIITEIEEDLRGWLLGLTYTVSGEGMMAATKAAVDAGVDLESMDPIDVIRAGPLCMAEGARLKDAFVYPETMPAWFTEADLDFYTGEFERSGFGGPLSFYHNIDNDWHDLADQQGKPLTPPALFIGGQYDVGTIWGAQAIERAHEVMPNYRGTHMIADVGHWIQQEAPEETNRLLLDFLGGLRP
Kind of assay: Inhibition of Mycobacterium tuberculosis recombinant EphB expressed in Escherichia coli BL21 using CMNPC as substrate at 10 nM after 30 mins by fluorescent assay relative to control.

Assay [6] deals with Klebsiella pneumoniae. Kind of assay: Antibacterial activity against Klebsiella pneumoniae. Format: functional.
The test system of assay [7] is Mycobacterium tuberculosis. As to the kind of experiment: microbe, parasite or virus in culture. Conditions: H37Rv, 168 h.
In assay [8] the test system is Enterococcus faecalis. Kind of assay: Antibacterial activity against Enterococcus faecalis. Format: functional.
For assay [9], the system named is Bacillus anthracis. Kind of assay: microbe, parasite or virus in culture.
The subject of assay [10] is Escherichia coli. Kind of assay: Antibacterial activity against Escherichia coli […] TolC. Format: functional.
Assay [11] deals with T2, Hydrolase, alpha/beta hydrolase fold family (Mycobacterium tuberculosis, UniProt O69638).
T2 sequence (O69638 whole entry): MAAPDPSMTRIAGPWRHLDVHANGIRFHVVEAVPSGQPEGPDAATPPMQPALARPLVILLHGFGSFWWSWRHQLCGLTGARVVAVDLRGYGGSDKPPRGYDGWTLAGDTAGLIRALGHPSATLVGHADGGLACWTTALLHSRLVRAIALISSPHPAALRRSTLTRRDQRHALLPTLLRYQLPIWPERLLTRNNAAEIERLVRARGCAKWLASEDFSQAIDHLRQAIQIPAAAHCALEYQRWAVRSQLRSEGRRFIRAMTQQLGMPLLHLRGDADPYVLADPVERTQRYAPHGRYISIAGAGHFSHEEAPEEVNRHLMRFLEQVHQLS
Kind of assay: Inhibition of Mycobacterium tuberculosis recombinant EphE expressed in Escherichia coli BL21 using CMNPC as substrate after 30 mins by fluorescent assay relative to control.

The subject of assay [12] is Escherichia coli. As to the kind of experiment: Antibacterial activity against Escherichia coli K12. Format: functional. Conditions: K-12.
For assay [13], the target named is T3, Epoxide hydrolase B (Mycobacterium tuberculosis, UniProt P95276).
T3 sequence (P95276 whole entry): T1 sequence (whole entry)
Kind of assay: Inhibition of Mycobacterium tuberculosis recombinant EphB expressed in Escherichia coli BL21 using CMNPC as substrate after 30 mins by fluorescent assay relative to control.

In assay [14] the target is T4, Bifunctional epoxide hydrolase 2 (Homo sapiens, UniProt P34913).
T4 sequence (P34913 whole entry): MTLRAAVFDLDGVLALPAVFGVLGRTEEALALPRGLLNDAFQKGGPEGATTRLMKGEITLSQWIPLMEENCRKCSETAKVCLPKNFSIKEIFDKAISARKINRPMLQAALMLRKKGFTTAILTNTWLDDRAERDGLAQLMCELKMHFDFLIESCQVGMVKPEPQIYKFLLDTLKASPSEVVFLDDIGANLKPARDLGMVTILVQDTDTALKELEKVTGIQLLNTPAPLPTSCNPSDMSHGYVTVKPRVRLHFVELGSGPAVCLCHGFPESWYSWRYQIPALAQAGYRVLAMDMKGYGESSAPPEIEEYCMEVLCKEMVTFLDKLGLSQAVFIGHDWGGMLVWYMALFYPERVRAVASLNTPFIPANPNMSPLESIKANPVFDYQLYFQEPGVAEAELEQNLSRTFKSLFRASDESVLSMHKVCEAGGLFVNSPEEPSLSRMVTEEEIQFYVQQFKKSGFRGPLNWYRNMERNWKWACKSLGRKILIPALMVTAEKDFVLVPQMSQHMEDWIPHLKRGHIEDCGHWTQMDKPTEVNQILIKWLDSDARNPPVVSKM
As to the kind of experiment: Inhibition of human recombinant soluble epoxide hydrolase using CMNPC as substrate after 10 mins by fluorescent assay.

Assay [15] relates to Vero. Kind of assay: Cytotoxicity against african green monkey Vero cells after 72 hrs by MTT assay. Format: cell-based. Particulars: Chlorocebus sabaeus. Background: Tetrazolium assays rely on reduction of a dye to a coloured formazan, in cell work by metabolically active cells.
The target of assay [16] is T5, Hydrolase, alpha/beta hydrolase fold family (Mycobacterium tuberculosis) (UniProt O69638).
T5 sequence (whole entry): T2 sequence (O69638 whole entry)
Kind of assay: Inhibition of Mycobacterium tuberculosis recombinant EphE expressed in Escherichia coli BL21 using CMNPC as substrate at 10 nM after 30 mins by fluorescent assay relative to control.

Broadly, the inhibition is the change of the read-out against control, counted positive when it falls. A word on the IC50: it is the concentration that gives 50% inhibition. For `CC(C)CCOc1ccc(NC(=S)Nc2ccc(OCCC(C)C)cc2)cc1` [TIOCARLIDE], the MIC in assay [1] was over 200 µg/mL; in assay [2], over 200 µg/mL; in assay [3], over 200 µg/mL; in assay [4] it was over 200 µg/mL; in assay [6], over 200 µg/mL; in assay [7], 2.5 µg/mL (≈ 6.24 µM). Moreover, the MIC in assay [8], in assay [9], in assay [10] and in assay [12] was over 200 µg/mL each time. The inhibition result in assay [5] is “inactive”. Moreover, the IC50 in assay [11] is 22 nM.
Take `CC(=O)C1CCC(NC(=O)Nc2ccc(OC(F)(F)F)cc2)CC1` (stereo not drawn): the IC50 in [13] is 31600 nM; in assay [14], 12 nM.
`COCCCNC(=O)NC12CC3CC(CC(C3)C1)C2`: the IC50 in [15] amounted to 20.4 µg/mL (≈ 76.6 µM); in assay [14] it was 386 nM. Further, the MIC is over 200 µg/mL in assay [1]; over 200 µg/mL in assay [2]; over 200 µg/mL in assay [3]; 200 µg/mL (≈ 751 µM) in [4]; over 200 µg/mL in assay [6]; 100 µg/mL (≈ 375 µM) in assay [7]. In addition, the MIC in assay [8], in assay [9], in assay [10] and in assay [12] was over 200 µg/mL throughout. Also, the inhibition was 35.9% in [16] and 23.7% in assay [5].
